We go through one compound from US10336792B2, “Antimicrobial peptide dendrimers” (priority 2014, dated 2019).

Data set [1] has as its system P. aeruginosa PA01 (WT). It is filed as cell-based, Pseudomonas aeruginosa. The note with it: WT. The protocol: (§1) Antimicrobial activity was assayed against P. aeruginosa PA01 (WT), P. aeruginosa PT1482 (A-), PT1485 (A-B-), PT1149 (A-B-C-algC), PT331 (Z61) (LPS mutants), P. aeruginosa PEJ2.6, PEJ9.1, ZEM1.A, ZEM9.A (clinical isolates from Université de Genève/Centre Médical Universitaire), Burkholderia cenocepacia (B. ceno), Staphylococcus aureus (S. aureus, MRSA strain) and Acinetobacter baumannii (A. baum) (clinical isolates from Université de Genève/Centre Médical Universitaire). To determine the minimal inhibitory concentration (MIC), microdilution broth method was used. A colony of bacteria was grown in MH-medium overnight at 37° C. The samples were prepared as stock solutions of 8 mg mL^−1 in H2O, diluted to the beginning concentration of 32, 64, 128 or 256 μg/mL in 300 μL MH-medium, added to the first well of 96-well microtiterplate (TPP, untreated) and diluted serially by ½. The concentration of the bacteria was quantified by measuring absorbance at 600 nm and diluted to OD600=0.022 in MH-medium. The sample solutions (150 μL) were mixed with 4 μL diluted bacterial suspension with a final inoculation of about of 5×10^5 CFU. The plates were incubated at 37° C. until satisfactory growth (˜18 h). For each test, two columns of the plate were kept for sterility control (SC, broth only) and growth control (GC, broth with bacterial inoculums, no antibiotics). The minimal inhibitory concentration (MIC) was defined as the lowest concentration of the antimicrobial substance (peptide dendrimer) that inhibited visible growth of the tested bacteria with the unaided eye. For microbiological study Polymyxin was used as references.

In data set [2] the test system is P. aeruginosa PT1482 (A-), PT1485 (A-B-), PT1149 (A-B-C-algC), PT331 (Z61) (LPS mutants). It is filed as cell-based, Pseudomonas aeruginosa. To be noted: MH medium, 12-18 h. As for the experimental part: as §1
The subject of data set [3] is P. aeruginosa PEJ2.6, PEJ9.1, ZEM1.A, ZEM9.A (clinical isolates). The data set is classed as cell-based, Pseudomonas aeruginosa. To be noted: PEJ2.6, PEJ9.1, ZEM1.A, ZEM9.A (clinical isolates). As for the experimental part: as §1
Ten of the most promising compounds (FIG. 5) were tested for their efficiency against four clinical isolates of P. aeruginosa (ZEM9.A, ZEM1.A, PEJ2.6, PEJ9.1), one S. aureus (COL, MRSA reference strain) and one A. baumannii strain. For the experiments in Genève the peptide dendrimers and reference compounds (polymyxin) were dissolved in PBS and the assay was carried out in Müller-Hinton (MH) broth with a two-fold dilution.

In data set [4] the test system is male wistar rats. As to the kind of experiment: In-vivo toxicity study, single i.v. injection. More on the design: species or system rat. The text has this:
4-6 weeks old male wistar rats (weight range 200-500 g) were used in toxicity experiments. Rats were obtained from Zentrale Tierställe Bern (Department of Clinical Research from University of Bern) and housed 4 per cage. Each experimental group includes two rats. All procedures, care and handling of the animals were reviewed and approved by the Veterinärdienst of Kanton Bern, Schweiz and execute in collaboration with the group of Prof. Hugues Abriel from Department of Clinical Research from University of Bern.
Rats were anesthetized with 4% isoflurane and 1 L/min oxygen in an induction chamber. When the rats were sleeping they were transferred on a clinical drape and anesthetized with 1-2% isoflurane and 0.8 l/min oxygen via a mask. The tail was warmed up with warm water and disinfected with 70% ethanol. The intravenous (i.v.) injections into the tail vein included a single dose of the AMPD of 2 mg/kg rat in 500 μL PBS. Before injection each rat was weighted individually and the exact dosage was determined. All rats, including control groups with no injection and i.v. injection of 500 μL PBS, were monitored for their survival and behavior for two days.
The compounds MSt-112, a 3rd generation AMPD with KL motive, MSt-181 its D-enantiomer analogue, MSt-242, a the 3rd generation with RL motive, and MSt-114 with Tyr instead of Lys in the 3rd generation were used for in vivo experiments with male wistar rats to assess their toxicity. These compounds were selected due to their high potencies and high MHCs values, which are at least 10 times higher than their activities. Each compound (concentration of 2 mg/kg) was applied to two rats by intravenous injection into the tail vein to observe if the AMPDs are well tolerated or may cause adverse effects. The concentration used was approx. 5-10 times higher than the MICs. […] The behaviour of the rats was normal. […] Therefore it seems that rats tolerate AMPDs very well, without visible site effects or even casualties.

Data set [5] deals with Pseudomonas aeruginosa (strain PA01). The experiment in a line: microbe, parasite or virus in culture. It is filed as cell-based. To be noted: strain. The procedure, abridged: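 Broth microdilution MIC against P. aeruginosa PAO1 in LB: peptides serially diluted by ⅔, bacteria added at OD600 0.001 and incubated 18–24 h at 37 °C. MTT added; MIC is the lowest concentration preventing visible growth.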

Data set [6] has as its system Acinetobacter baumannii. The data set is classed as cell-based. The procedure, abridged: (§2)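 Broth microdilution in Müller-Hinton medium, two-fold serial dilutions from a starting 32–256 μg/mL, compounds dissolved in PBS; inoculum about 5×10^5 CFU, incubated 37° C ~18 h. MIC taken as lowest concentration with no visible growth by eye; polymyxin as reference.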
For data set [7], the system named is Staphylococcus aureus (COL, MRSA reference strain). The data set is classed as cell-based. The note with it: COL, reference strain. An outline of the steps: as §2
The test system of data set [8] is Escherichia coli (strain DH5α). It is filed as cell-based. The note with it: DH5α. An outline of the steps:
(§3)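 Broth microdilution MIC in LB; overnight cultures diluted to OD600 0.001 and mixed 1:1 with ⅔-serially diluted samples (stock 1 mg mL^−1 in H2O), 37° C for 18-24 h. MTT (0.1%) added; MIC read by eye as lowest concentration inhibiting visible growth (yellow).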

In data set [9] the test system is Bacillus subtilis (strain BR151). It is filed as cell-based. The note with it: strain BR151. An outline of the steps:
as §3

Converted amounts (≈) assume the structure as drawn. Positions of bridges follow the written chain, without caps; N, C: chain ends. Residues, ends and D or L forms follow the SMILES beside them. Groups on a side chain read outwards from the residue. Chains are numbered I, II in the order given.

With `CC(C)C[C@H](NC(=O)[C@H](CCCCN)NC(=O)[C@H](CCCCNC(=O)[C@H](CC(C)C)NC(=O)[C@H](CCCCN)NC(=O)[C@H](CCCCNC(=O)[C@H](CC(C)C)NC(=O)[C@H](CCCCN)NC(=O)[C@H](CCCCNC(=O)[C@H](CC(C)C)NC(=O)[C@@H](N)CCCCN)NC(=O)[C@H](CC(C)C)NC(=O)[C@@H](N)CCCCN)NC(=O)[C@H](CC(C)C)NC(=O)[C@H](CCCCN)NC(=O)[C@H](CCCCNC(=O)[C@H](CC(C)C)NC(=O)[C@@H](N)CCCCN)NC(=O)[C@H](CC(C)C)NC(=O)[C@@H](N)CCCCN)NC(=O)[C@H](CC(C)C)NC(=O)[C@H](CCCCN)NC(=O)[C@H](CCCCNC(=O)[C@H](CC(C)C)NC(=O)[C@H](CCCCN)NC(=O)[C@H](CCCCNC(=O)[C@H](CC(C)C)NC(=O)[C@@H](N)CCCCN)NC(=O)[C@H](CC(C)C)NC(=O)[C@@H](N)CCCCN)NC(=O)[C@H](CC(C)C)NC(=O)[C@H](CCCCN)NC(=O)[C@H](CCCCNC(=O)[C@H](CC(C)C)NC(=O)[C@@H](N)CCCCN)NC(=O)[C@H](CC(C)C)NC(=O)[C@@H](N)CCCCN)C(N)=O` [MSt-112, (KL)8(KKL)4(KKL)2(KKL)] (I: H-KLK([Leu-Lys])KLKKLKKL-NH2 / II: H-KLK([Leu-Lys])KLKKL / III: H-KLK([Leu-Lys])KL / IV: H-KLK([Leu-Lys])KL; amide I:6-IV:C, I:9-II:C, II:6-III:C), in data set [1], the “MIC (MH)” value was found to be 4 µg/mL (≈ 0.882 µM) and the “MIC PAO1” value was 4 µg/mL (≈ 0.882 µM). For the same compound, in data set [2], the “MIC PT1482 (A-)” value was 4 µg/mL (≈ 0.882 µM) and the “MIC PT1485 (AB-)” value was determined as 4 µg/mL (≈ 0.882 µM). Moreover, in data set [3], the “MIC P. aeruginosa MDR clinical isolate PEJ2.6” value was determined as 16 µg/mL (≈ 3.53 µM), the “MIC P. aeruginosa MDR clinical isolate PEJ9.1” value came to 64 µg/mL (≈ 14.1 µM), the “MIC P. aeruginosa MDR clinical isolate ZEM1A” value turned out to be 4 µg/mL (≈ 0.882 µM) and the “MIC P. aeruginosa MDR clinical isolate ZEM9A” value fell in the range of 32 to 64 µg/mL. Also, the “visible effects and behaviour after injection” value in data set [4] (2 mg/kg single i.v. dose into tail vein, two rats) is recorded as “No visible effect”. This compound also registered a survival rate in data set [4] (2 mg/kg single i.v. dose, monitored 2 days) of 100%. In addition, in [5], the “MIC P. aeruginosa PAO1” value was 2 µg/mL (≈ 0.441 µM). Besides, the “MIC A. baumannii ATCC19606” value in [6] lay in the range of 8 to 16 µg/mL. Moreover, the “MIC S. aureus COL” value in [7] is >64 µg/mL. The “MIC E. coli DH5α” value in [8] stood at 4 µg/mL (≈ 0.882 µM). For the same compound, the “MIC B. subtilis BR151” value in [9] is 3 µg/mL (≈ 0.662 µM).
